Reference: US9328138B2 (priority 2011, dated 2016)

How the values were obtained:
[1] = target: T1, HCV genotype 1b (BK) NS3 modified enzyme with a R155K mutation (Hepatitis C virus genotype 1b, UniProt P26663, R1181K); test: HCV NS3 protease time-resolved fluorescence (TRF) assay, genotype 1b R155K; format: biochemical; conditions: Ki 1b R155K, genotype 1b (BK) NS3 R155K; single value
T1 construct: HCV genotype 1b (BK) NS3 modified enzyme
Outline: (§1)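 Pre-incubation of NS3/NS4A protease with inhibitor for 10 min in pH 7.5 HEPES buffer with 10 mM DTT; 25 nM TRF peptide substrate, hydrolysis 6 h at room temperature. Fluorescence read at ex 340/em 615 nm with 400 μs delay, enzyme level set for S/B 5-20; IC50 by four-parameter fit.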

[2] = target: HCV NS3 protease genotype 3a (3A-1) (Hepatitis C virus genotype 3a, UniProt Q81258); test: HCV NS3 protease time-resolved fluorescence (TRF) assay, genotype 3a; format: biochemical; conditions: Ki 3a
Outline: as §1

Structure (SMILES) | Ki [1] [nM] | Ki [2] [nM]
C=C[C@@H]1C[C@]1(NC(=O)[C@@H]1C[C@@H]2CN1C(=O)[C@H](C1CCCCC1)NC(=O)O[C@@H]1C[C@H]1CCCCCc1c(nc3ccccc3c1OCCCN1CCCOCC1)O2)C(=O)NS(=O)(=O)C1(C)CC1 [Example 168, (1aR,5S,8S,10R,22aR)-5-cyclohexyl-N-[(1R,2S)-2-ethenyl-1-{[(1-methylcyclopropyl)sulfonyl]carbamoyl}cyclopropyl]-17-[3-(1,4-oxazepan-4-yl)propoxy]-3,6-dioxo-1,1a,3,4,5,6,9,10,18,19,20,21, 22,22a-tetradeca hydro-8H-7,10-methanocyclopropa[18,19][1,10,3,6] dioxadiazacyclononadecino[11,12-b] quinoline-8-carboxamide] | 0.078 | 1.3
C=C[C@@H]1C[C@]1(NC(=O)[C@@H]1C[C@@H]2CN1C(=O)[C@H](C1CCCCC1)NC(=O)O[C@@H]1C[C@H]1CCCCCc1c(nc3ccccc3c1OCCCN1CC[C@@H](O)C1)O2)C(=O)NS(=O)(=O)C1(C)CC1 [Example 169, (1aR,5S,8S,10R,22aR)-5-cyclohexyl-N-[(1R,2S)-2-ethenyl-1-{[(1-methylcyclopropyl)sulfonyl]carbamoyl}cyclopropyl]-17-{3-[(3R)-3-hydroxypyrrolidin-1-yl]propoxy}-3,6-dioxo-1,1a,3,4,5,6,9,10, 18,19,20,21,22,22a-tetradeca hydro-8H-7,10-methanocyclopropa[18,19][1,10,3,6] dioxadiazacyclononadecino[11,12-b] quinoline-8-carboxamide] | 0.042 | 0.75
C=C[C@@H]1C[C@]1(NC(=O)[C@@H]1C[C@@H]2CN1C(=O)[C@H](C1CCCCC1)NC(=O)O[C@@H]1C[C@H]1CCCCCc1c(nc3ccccc3c1OCCCN1CCC(F)(F)CC1)O2)C(=O)NS(=O)(=O)C1(C)CC1 [Example 170] | 1.1 | 21
C=C[C@@H]1C[C@]1(NC(=O)[C@@H]1C[C@@H]2CN1C(=O)[C@H](C1CCCCC1)NC(=O)O[C@@H]1C[C@H]1CCCCCc1c(nc3ccccc3c1OCCCSc1nncn1C)O2)C(=O)NS(=O)(=O)C1(C)CC1 [Example 171, (1aR,5S,8S,10R,22aR)-5-cyclohexyl-N-[(1R,2S)-2-ethenyl-1-{[(1-methylcyclopropyl)sulfonyl]carbamoyl}cyclopropyl]-17-{3-[(4-methyl-4H-1,2,4-triazol-3-yl)sulfanyl]propoxy}-3,6-dioxo-1,1a,3,4,5,6,9,10, 18,19,20,21,22,22a-tetradecahydro-8H-7,10-methanocyclopropa[18,19][1,10,3,6] dioxadiazacyclononadecino[11,12-b] quinoline-8-carboxamide] | 0.099 | 2
C=C[C@@H]1C[C@]1(NC(=O)[C@@H]1C[C@@H]2CN1C(=O)[C@H](C1CCCCC1)NC(=O)O[C@@H]1C[C@H]1CCCCCc1c(nc3ccccc3c1OCCCSc1nccs1)O2)C(=O)NS(=O)(=O)C1(C)CC1 [Example 172] | 1.1 | 14
C=C[C@@H]1C[C@]1(NC(=O)[C@@H]1C[C@@H]2CN1C(=O)[C@H](C(C)(C)C)NC(=O)O[C@@H]1C[C@H]1CCCCCc1c(nc3ccccc3c1OCCN1CCOC(C)(C)C1)O2)C(=O)NS(=O)(=O)C1(C)CC1 [Example 173, (1aR,5S,8S,10R,22aR)-5-tert-butyl-17-[2-(2,2-dimethylmorpholin-4-yl)ethoxy]-N-[(1R,2S)-2-ethenyl-1-{[(1-methylcyclopropyl)sulfonyl]carbamoyl}cyclopropyl]-3,6-dioxo-1,1a,3,4,5,6,9,10,18,19,20,21, 22,22a-tetradecahydro-8H-7,10-methanocyclopropa[18,19][1,10,3,6] dioxadiazacyclononadecino[11,12-b] quinoline-8-carboxamide] | 0.34 | 9.5
C=C[C@@H]1C[C@]1(NC(=O)[C@@H]1C[C@@H]2CN1C(=O)[C@H](C(C)(C)C)NC(=O)O[C@@H]1C[C@H]1CCCCCc1c(nc3ccccc3c1OCCN1CC(O)C1)O2)C(=O)NS(=O)(=O)C1(C)CC1 [Example 174, (1aR,5S,8S,10R,22aR)-5-tert-butyl-N-[(1R,2S)-2-ethenyl-1-{[(1-methylcyclopropyl)sulfonyl]carbamoyl}cyclopropyl]-17-[2-(3-hydroxyazetidin-1-yl)ethoxy]-3,6-dioxo-1,1a,3,4,5,6,9,10,18,19,20,21,22,22a-tetradecahydro-8H-7,10-methanocyclopropa[18,19][1,10,3,6] dioxadiazacyclononadecino[11,12-b] quinoline-8-carboxamide] | 0.057 | 1.1
C=C[C@@H]1C[C@]1(NC(=O)[C@@H]1C[C@@H]2CN1C(=O)[C@H](C(C)(C)C)NC(=O)O[C@@H]1C[C@H]1CCCCCc1c(nc3ccccc3c1OCCN1CCC(C)(O)CC1)O2)C(=O)NS(=O)(=O)C1(C)CC1 [Example 175, (1aR,5S,8S,10R,22aR)-5-tert-butyl-N-[(1R,2S)-2-ethenyl-1-{[(1-methylcyclopropyl)sulfonyl]carbamoyl}cyclopropyl]-17-[2-(4-hydroxy-4-methylpiperidin-1-yl)ethoxy]-3,6-dioxo-1,1a,3,4,5,6,9,10,18,19,20,21,22,22a-tetradeca hydro-8H-7,10-methanocyclopropa[18,19][1,10,3,6] dioxadiazacyclononadecino[11,12-b] quinoline-8-carboxamide] | 0.091 | 0.89
C=C[C@@H]1C[C@]1(NC(=O)[C@@H]1C[C@@H]2CN1C(=O)[C@H](C(C)(C)C)NC(=O)O[C@@H]1C[C@H]1CCCCCc1c(nc3ccccc3c1OCCN1CCS(=O)(=O)CC1)O2)C(=O)NS(=O)(=O)C1(C)CC1 [Example 176, (1aR,5S,8S,10R,22aR)-5-tert-butyl-17-[2-(1,1-dioxidothiomorpholin-4-yl)ethoxy]-N-[(1R,2S)-2-ethenyl-1-{[(1-methylcyclopropyl)sulfonyl]carbamoyl}cyclopropyl]-3,6-dioxo-1,1a,3,4,5,6,9,10,18,19,20,21,22,22a-tetradecachydro-8H-7,10-methanocyclopropa[18,19][1,10,3,6] dioxadiazacyclononadecino[11,12-b] quinoline-8-carboxamide] | 0.1 | 1.3
C=C[C@@H]1C[C@]1(NC(=O)[C@@H]1C[C@@H]2CN1C(=O)[C@H](C(C)(C)C)NC(=O)O[C@@H]1C[C@H]1CCCCCc1c(nc3ccccc3c1OCCNC(C)(C)C)O2)C(=O)NS(=O)(=O)C1(C)CC1 [Example 177, (1aR,5S,8S,10R,22aR)-5-tert-butyl-17-[2-(tert-butylamino)ethoxy]-N-[(1R,2S)-2-ethenyl-1-{[(1-methylcyclopropyl)sulfonyl]carbamoyl}cyclopropyl]-3,6-dioxo-1,1a,3,4,5,6,9,10, 18,19,20,21,22,22a-tetradeca hydro-8H-7,10-methanocyclopropa[18,19][1,10,3,6] dioxadiazacyclononadecino[11,12-b] quinoline-8-carboxamide] | 0.14 | 1.1
C=C[C@@H]1C[C@]1(NC(=O)[C@@H]1C[C@@H]2CN1C(=O)[C@H](C(C)(C)C)NC(=O)O[C@@H]1C[C@H]1CCCCCc1c(nc3ccccc3c1OCCNC1CC1)O2)C(=O)NS(=O)(=O)C1(C)CC1 [Example 178, (1aR,5S,8S,10R,22aR)-5-tert-butyl-17-[2-(cyclopropylamino)ethoxy]-N-[(1R,2S)-2-ethenyl-1-{[(1-methylcyclopropyl)sulfonyl]carbamoyl}cyclopropyl]-3,6-dioxo-1,1a,3,4,5,6,9,10, 18,19,20,21,22,22a-tetradeca hydro-8H-7,10-methanocyclopropa[18,19][1,10,3,6] dioxadiazacyclononadecino[11,12-b] quinoline-8-carboxamide] | 0.14 | 3.6
C=C[C@@H]1C[C@]1(NC(=O)[C@@H]1C[C@@H]2CN1C(=O)[C@H](C(C)(C)C)NC(=O)O[C@@H]1C[C@H]1CCCCCc1c(nc3ccccc3c1OCCCNC(C)COC)O2)C(=O)NS(=O)(=O)C1(C)CC1 (stereo partly drawn) [Example 179, (1aR,5S,8S,10R,22aR)-5-tert-butyl-N-[(1R,2S)-2-ethenyl-1-{[(1-methylcyclopropyl)sulfonyl]carbamoyl}cyclopropyl]-17-{3-[(1-methoxypropan-2-yl)amino]propoxy}-3,6-dioxo-1,1a,3,4,5,6,9,10,18,19,20,21,22,22a-tetradecahydro-8H-7,10-methanocyclopropa[18,19][1,10,3,6] dioxadiazacyclononadecino[11,12-b] quinoline-8-carboxamide] | 0.034 | 0.58
C=C[C@@H]1C[C@]1(NC(=O)[C@@H]1C[C@@H]2CN1C(=O)[C@H](C(C)(C)C)NC(=O)O[C@@H]1C[C@H]1CCCCCc1c(nc3ccccc3c1OCCCNC1CCC1)O2)C(=O)NS(=O)(=O)C1(C)CC1 [Example 180, (1aR,5S,8S,10R,22aR)-5-tert-butyl-17-[3-(cyclobutylamino)propoxy]-N-[(1R,2S)-2-ethenyl-1-{[(1-methylcyclopropyl)sulfonyl]carbamoyl}cyclopropyl]-3,6-dioxo-1,1a,3,4,5,6,9,10, 18,19,20,21,22,22a-tetradeca hydro-8H-7,10-methanocyclopropa[18,19][1,10,3,6] dioxadiazacyclononadecino[11,12-b] quinoline-8-carboxamide] | 0.037 | 0.58
C=C[C@@H]1C[C@]1(NC(=O)[C@@H]1C[C@@H]2CN1C(=O)[C@H](C(C)(C)C)NC(=O)O[C@@H]1C[C@H]1CCCCCc1c(nc3ccccc3c1OCCCNC1CCOCC1)O2)C(=O)NS(=O)(=O)C1(C)CC1 [Example 181, (1aR,5S,8S,10R,22aR)-5-tert-butyl-N-[(1R,2S)-2-ethenyl-1-{[(1-methylcyclopropyl)sulfonyl]carbamoyl}cyclopropyl]-3,6-dioxo-17-[3-(tetrahydro-2H-pyran-4-ylamino)propoxy]-1,1a,3,4,5,6,9,10,18, 19,20,21,22,22a-tetradecahydro-8H-7,10-methanocyclopropa[18,19][1,10,3,6] dioxadiazacyclononadecino[11,12-b] quinoline-8-carboxamide] | 0.065 | 0.78
